According to US6441006B2, “Pharmaceutical compositions and methods for use” (Targacept, Inc., priority 1998, dated 2002):
Where “and” joins values, the source holds several entries; their conditions need not be identical. Equal entries are not always repeated.

What was measured:
[1] = test system: Rat brain synaptosomes; assay: Neurotransmitter release from brain synaptosomes; assay type: biochemical; conditions: in the presence of 10 µM of ligand; percentage of release obtained with 10 µM (S)-(-)-nicotine or 300 µM TMA
Method: Neurotransmitter release was measured using techniques similar to those previously published (Bencherif M, et al. JPET 279: 1413-1421, 1996).
Rat brain synaptosomes were prepared as follows: Female Sprague Dawley rats (100-200 g) were killed by decapitation after anesthesia with 70% CO2. Brains are dissected, and hippocampus, striatum, and thalamus isolated, and homogenized in 0.32 M sucrose containing 5 mM HEPES pH 7.4 using a glass/glass homogenizer. The tissue was then centrifuged for 1000×g for 10 minutes and the pellet discarded. The supernatant was centrifuged at 12000×g for 20 minutes. The resultant pellet was re-suspended in perfusion buffer (128 mM NaCl, 1.2 mM KH2PO4, 2.4 mM KCl, 3.2 mM CaCl2, 1.2 mM MgSO4, 25 mM HEPES, 1 mM Ascorbic acid, 0.01 mM pargyline HCl and 10 mM glucose pH 7.4) and centrifuged for 15 minutes at 25000×g. The final pellet was resuspended in perfusion buffer and placed in a water bath (37° C.) for 10 minutes. Radiolabeled neurotransmitter is added (30 L^3H DA, 20 L^3H NE, 10 L^3H glutamate) to achieve a final concentration of 100 nM, vortexed and placed in a water bath for additional 10 minutes. Tissue-loaded filters is placed onto 11-mm diameter Gelman A/E filters on an open-air support. After a 10-minute wash period, fractions are collected to establish the basal release and agonist applied in the perfusion stream. Further fractions were collected after agonist application to re-establish the baseline. The perfusate was collected directly into scintillation vials and released radioactivity was quantified using conventional liquid scintillation techniques. Release of neurotransmitter was determined in the presence of […] of various ligands and was expressedas a percentage of release obtained with a concentration of 10 M (S)-(−)-nicotine or 300 MTMA resulting in maximal effects.

[2] = target: T1, CNS nicotinic receptors (Rattus norvegicus, UniProt P09483+P12390); assay: Binding to relevant receptor sites; conditions: calculated from IC50 values using the method of Cheng et al.
T1 construct: Ki
Method: Binding of the compounds to relevant receptor sites was determined in accordance with the techniques described in U.S. Pat. No. 5,597,919 to Dull et al. Inhibition constants (Ki values), reported in nM, were calculated from the IC50 values using the method of Cheng et al., Biochem, Pharmacol. 22:3099 (1973).

[3] = test system: ganglia-type nicotinic acetylcholine receptors; assay: Interaction with ganglion receptors; assay type: cell-based; conditions: Emax, percentage of maximal activation induced by (S)-(-)-nicotine
Method: (§1) The determination of the interaction of the compounds with ganglionic receptors was carried out in accordance with the techniques described in U.S. Pat. No. 5,597,919 to Dull et al. The maximal activation for individual compounds (Emax) was determined as a percentage of the maximal activation induced by (S)-(−)-nicotine. Reported Emax values represent the amount released relative to (S)-(−)-nicotine on a percentage basis. […] Such preferable compounds have the capability to activate human CNS receptors without activating ganglia-type nicotinic acetylcholine receptors. Thus, there is provided a therapeutic window for utilization in the treatment of CNS disorders. […] The compounds begin to cause effects at ganglia only when employed in amounts of many times those required to activate dopamine release.
The determination of the interaction of the compounds with ganglionic receptors was carried out in accordance with the techniques described in U.S. Pat. No. 5,597,919 to Dull et al. The maximal activation for individual compounds (Emax) was determined as a percentage of the maximal activation induced by (S)-(−)-nicotine. Reported Emax values represent the amount released relative to (S)-(−)-nicotine on a percentage basis.

[4] = target: T2, muscle-type nicotinic acetylcholine receptors (Homo sapiens, UniProt P02708+P07510+Q07001); assay: Interaction with muscle receptors; assay type: cell-based; conditions: Emax, percentage of maximal activation induced by (S)-(-)-nicotine
T2 construct: endogenous in cells; host or cells: TE671/RD (own knowledge of the cited US 5,597,919)
Method: as §1, with “muscle” for “ganglionic”, “muscle-type” for “ganglia-type”, “cause muscle” for “cause”, “effects” for “effects at ganglia”

T1 sequence (P09483 31-630): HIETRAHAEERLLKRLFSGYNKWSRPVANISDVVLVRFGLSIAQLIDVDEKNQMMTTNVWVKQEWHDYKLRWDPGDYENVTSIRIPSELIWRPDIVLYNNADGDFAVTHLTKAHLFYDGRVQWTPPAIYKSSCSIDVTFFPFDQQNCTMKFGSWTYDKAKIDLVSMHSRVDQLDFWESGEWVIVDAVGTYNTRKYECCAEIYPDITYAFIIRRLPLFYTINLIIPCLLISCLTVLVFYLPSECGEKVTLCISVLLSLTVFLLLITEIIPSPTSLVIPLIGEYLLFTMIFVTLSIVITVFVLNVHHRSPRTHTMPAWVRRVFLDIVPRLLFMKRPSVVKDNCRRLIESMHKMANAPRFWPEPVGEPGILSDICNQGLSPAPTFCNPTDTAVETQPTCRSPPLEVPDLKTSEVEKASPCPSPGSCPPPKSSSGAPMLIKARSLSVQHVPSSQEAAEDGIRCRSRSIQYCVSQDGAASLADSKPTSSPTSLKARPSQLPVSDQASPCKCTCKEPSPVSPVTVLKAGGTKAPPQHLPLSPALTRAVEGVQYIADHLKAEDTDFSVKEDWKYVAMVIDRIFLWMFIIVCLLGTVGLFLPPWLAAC
T1 sequence (P12390 25-500): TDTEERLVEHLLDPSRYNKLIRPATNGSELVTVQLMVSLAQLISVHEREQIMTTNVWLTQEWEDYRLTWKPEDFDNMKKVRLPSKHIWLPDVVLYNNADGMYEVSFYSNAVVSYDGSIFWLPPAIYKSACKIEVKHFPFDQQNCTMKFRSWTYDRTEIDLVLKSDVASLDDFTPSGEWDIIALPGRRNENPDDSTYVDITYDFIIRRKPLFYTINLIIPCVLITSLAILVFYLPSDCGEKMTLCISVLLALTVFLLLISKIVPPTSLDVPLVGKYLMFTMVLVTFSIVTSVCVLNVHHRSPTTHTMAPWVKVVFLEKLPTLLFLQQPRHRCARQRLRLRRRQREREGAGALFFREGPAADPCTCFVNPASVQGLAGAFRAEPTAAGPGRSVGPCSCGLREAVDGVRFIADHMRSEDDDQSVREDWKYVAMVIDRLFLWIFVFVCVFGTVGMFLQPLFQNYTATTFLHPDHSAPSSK
T2 sequence (P02708 21-457): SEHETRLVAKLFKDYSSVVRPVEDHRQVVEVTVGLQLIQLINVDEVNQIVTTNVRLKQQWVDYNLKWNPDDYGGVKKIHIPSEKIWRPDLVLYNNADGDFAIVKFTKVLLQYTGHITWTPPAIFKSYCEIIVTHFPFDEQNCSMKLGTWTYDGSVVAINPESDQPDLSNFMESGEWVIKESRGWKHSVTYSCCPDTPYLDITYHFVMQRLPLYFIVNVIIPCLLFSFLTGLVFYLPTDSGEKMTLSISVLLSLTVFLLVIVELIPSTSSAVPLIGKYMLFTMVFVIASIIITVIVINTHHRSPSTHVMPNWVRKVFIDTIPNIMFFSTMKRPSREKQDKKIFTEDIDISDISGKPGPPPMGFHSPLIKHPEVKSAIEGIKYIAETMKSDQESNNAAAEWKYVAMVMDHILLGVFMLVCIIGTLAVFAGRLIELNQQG
T2 sequence (P11230 24-501 partner): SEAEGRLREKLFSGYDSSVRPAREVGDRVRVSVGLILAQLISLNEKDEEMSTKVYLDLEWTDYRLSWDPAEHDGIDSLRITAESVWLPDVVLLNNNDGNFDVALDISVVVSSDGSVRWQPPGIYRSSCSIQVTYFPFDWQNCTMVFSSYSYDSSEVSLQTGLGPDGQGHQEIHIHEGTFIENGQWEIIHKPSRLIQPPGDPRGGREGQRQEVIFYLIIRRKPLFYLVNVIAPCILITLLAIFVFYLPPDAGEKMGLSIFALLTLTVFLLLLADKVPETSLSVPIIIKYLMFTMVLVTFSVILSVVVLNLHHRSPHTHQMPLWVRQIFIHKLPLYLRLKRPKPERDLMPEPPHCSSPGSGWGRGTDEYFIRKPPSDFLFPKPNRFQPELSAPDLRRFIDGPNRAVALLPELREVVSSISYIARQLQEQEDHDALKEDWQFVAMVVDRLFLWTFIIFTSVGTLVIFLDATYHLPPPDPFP
T2 sequence (Q07001 22-517): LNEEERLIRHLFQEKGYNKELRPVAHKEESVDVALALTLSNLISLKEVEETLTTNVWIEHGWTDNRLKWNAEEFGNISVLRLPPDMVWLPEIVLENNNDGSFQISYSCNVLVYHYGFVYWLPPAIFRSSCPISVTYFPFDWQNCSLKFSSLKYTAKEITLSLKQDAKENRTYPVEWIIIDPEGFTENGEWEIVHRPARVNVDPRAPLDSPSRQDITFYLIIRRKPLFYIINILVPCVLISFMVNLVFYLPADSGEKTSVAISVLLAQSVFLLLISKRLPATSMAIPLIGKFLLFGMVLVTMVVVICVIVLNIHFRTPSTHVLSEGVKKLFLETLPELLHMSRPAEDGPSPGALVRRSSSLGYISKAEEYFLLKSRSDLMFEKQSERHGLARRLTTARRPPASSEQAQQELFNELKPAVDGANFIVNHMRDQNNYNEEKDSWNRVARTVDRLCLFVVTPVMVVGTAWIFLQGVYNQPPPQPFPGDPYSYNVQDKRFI
T2 sequence (P07510 23-517): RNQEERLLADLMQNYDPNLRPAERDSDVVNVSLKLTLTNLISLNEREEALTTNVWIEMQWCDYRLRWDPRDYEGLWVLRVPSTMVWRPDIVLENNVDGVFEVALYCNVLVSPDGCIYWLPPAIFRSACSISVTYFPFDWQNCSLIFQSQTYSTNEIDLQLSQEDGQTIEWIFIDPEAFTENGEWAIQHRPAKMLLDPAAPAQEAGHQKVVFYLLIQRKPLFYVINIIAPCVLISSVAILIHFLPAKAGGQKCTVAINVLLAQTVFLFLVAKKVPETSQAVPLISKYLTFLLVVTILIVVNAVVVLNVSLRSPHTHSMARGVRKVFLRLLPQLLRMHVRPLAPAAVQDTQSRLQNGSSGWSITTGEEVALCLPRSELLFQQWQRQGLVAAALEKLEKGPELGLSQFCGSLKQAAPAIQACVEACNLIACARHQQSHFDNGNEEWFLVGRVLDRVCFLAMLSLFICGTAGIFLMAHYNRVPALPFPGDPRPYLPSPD

| Molecule | neurotransmitter release [1] | Ki [2] | effect at ganglia sites [3] | effect at muscle sites [4] | melting point |
| --- | --- | --- | --- | --- | --- |
| 2-(3-Pyridyloxy)ethylamine Hemigalactarate [Example 7] | 30% | 1.6 µM | – | – | – |
| 3-(3-Aminopropoxy)phenylamine Hemigalactarate [Example 29] | 14% | 0.442 µM | – | – | – |
| 3-(3-Pyridyloxy)propylamine Hemigalactarate [Example 10] | 0% | – | 0% | 0% | – |
| 3-(5-Chloro-3-pyridyloxy)propylamine Hemigalactarate [Example 15] | 110% | 0.046 µM | 4% | 0% | – |
| 4-(3-Pyridyloxy)butylamine Hemigalactarate [Example 12] | 100% | 0.232 µM | 11% | 0% | – |
| CN(C)CCOc1cccnc1 [Example 9, Dimethyl(2-(3-pyridyloxy)ethylamine Hemigalactarate] | 0% | – | 0% | 0% | – |
| CC(C)NCCCOc1cccnc1 [Example 23, (Methylethyl)(3-(3-pyridyloxy)propyl)amine] | 16% | 8.5 µM | – | – | – |
| c1ccc(CNCCCOc2cccnc2)cc1 [Example 24, Benzyl(3-(3-pyridyloxy)propyl)amine] | 29% | – | – | – | – |
| Cl.Cl.c1cncc(OC2CCNCC2)c1 [Example 35, 3-(4-Piperidinyloxy)pyridine Dihydrochloride] | – | – | 9% | 16% | 71 to 73.5 °C |
| (2-(5-Bromo(3-pyridylthio))ethyl)methylamine Hemigalactarate [Example 38] | – | 3.4 µM | – | – | – |
| (3-(3-Aminophenoxy)propyl)methylamine Hemigalactarate [Example 30] | 30% and 60% | 0.064 µM | 5% | 11% | – |
| (3-(5-Bromo(3-pyridyloxy))propyl)methylamine Hemigalactarate [Example 6] | – | 0.044 µM | – | – | – |
| (3-(5-Chloro(3-pyridyloxy))-1-methylpropyl)methylamine Hemigalactarate [Example 27] | 30% | 1.6 µM | – | – | – |
| (3-(5-Chloro(3-pyridyloxy))propyl)methylamine Hemigalactarate [Example 16] | 100% | 0.011 µM | 7% | 16% | – |
| (3-Benzo[3,4-d]1,3-dioxolan-5-yloxypropyl)methylamine Hemigalactarate [Example 34] | 41% | 16.6 µM | – | – | – |
| Cyclopropyl(3-(3-pyridyloxy)propyl)amine Hemigalactarate [Example 25] | 51% | 0.165 µM | 10% | 9% | – |
| Dimethyl(3-(3-(methylamino)propoxy)phenyl)amine Hemigalactarate [Example 31] | 16% | 10 µM | – | – | – |
| Dimethyl(3-(3-pyridyloxy)propyl)amine Hemigalactarate [Example 11] | 32% | 0.126 µM | 5% | 8% | – |
| Dimethyl(4-(3-pyridyloxy)butyl)amine Hemigalactarate [Example 14] | 24% | 3.41 µM | – | – | – |
| Ethyl(3-(3-pyridyloxy)propyl)amine Hemigalactarate [Example 22] | 57% | 0.066 µM | 13% | 13% | – |
| Methyl(1-methyl-3-(3-pyridyloxy)propyl)amine Hemigalactarate [Example 26] | 49% | 0.138 µM | 20% | 16% | – |
| Methyl(2-(3-pyridyloxy)ethyl)amine Hemigalactarate [Example 8] | 143% | 0.065 µM | 0% | 0% | – |
| Methyl(3-(2-methyl(3-pyridyloxy))propyl)amine Hemigalactarate [Example 21] | 69% | 0.236 µM | 15% | 0% | – |
| Methyl(3-(3-nitrophenoxy)propyl)amine Hemigalactarate [Example 28] | 67% | 0.392 µM | 9% | 10% | – |
| Methyl(3-(5-(phenylmethoxy)(3-pyridyloxy))propyl)amine Hemigalactarate [Example 19] | 38% | 0.002 µM | 3% | 1% | – |
| Methyl(3-(5-isopropoxy-3-pyridyloxy)propyl)amine Monogalactarate [Example 18] | 36% | 0.021 µM | 0% | 22% | – |
| Methyl(3-(5-methoxy-3-pyridyloxy)propyl)amine Hemigalactarate [Example 17] | 54% | 0.015 µM | 5% | 10% | – |
| Methyl(3-(6-methyl(3-pyridyloxy))propyl)amine Hemigalactarate [Example 20] | 77% | 0.012 µM | – | 0% | – |
| Methyl(3-tricyclo[7.3.1.0<5,13>]tridec-2-yloxypropyl)amine Hemigalactarate [Example 32] | – | 100 µM | – | – | – |
| Methyl(4-(3-pyridyloxy)butyl)amine Hemigalactarate [Example 13] | 56% | 5.52 µM | – | – | – |
